From paper PMC3564796, “Reversal of MRP7 (ABCC10)-Mediated Multidrug Resistance by Tariquidar” (PLoS ONE, 2013)

Experiments:
[1] = target: T1, MRP7 (ABCC10) (Homo sapiens, UniProt Q5T3U5); test: cellular efflux time course, HEK/MRP7 versus HEK/pcDNA; assay type: cell-based; conditions: labelled compound (3H); 0.01 µM; 37°C; 0-120 min
T1 construct: MRP7 expression vector stably transfected into HEK293 cells (HEK/MRP7); empty-vector HEK/pcDNA as control
T1 sequence (Q5T3U5 1-1492): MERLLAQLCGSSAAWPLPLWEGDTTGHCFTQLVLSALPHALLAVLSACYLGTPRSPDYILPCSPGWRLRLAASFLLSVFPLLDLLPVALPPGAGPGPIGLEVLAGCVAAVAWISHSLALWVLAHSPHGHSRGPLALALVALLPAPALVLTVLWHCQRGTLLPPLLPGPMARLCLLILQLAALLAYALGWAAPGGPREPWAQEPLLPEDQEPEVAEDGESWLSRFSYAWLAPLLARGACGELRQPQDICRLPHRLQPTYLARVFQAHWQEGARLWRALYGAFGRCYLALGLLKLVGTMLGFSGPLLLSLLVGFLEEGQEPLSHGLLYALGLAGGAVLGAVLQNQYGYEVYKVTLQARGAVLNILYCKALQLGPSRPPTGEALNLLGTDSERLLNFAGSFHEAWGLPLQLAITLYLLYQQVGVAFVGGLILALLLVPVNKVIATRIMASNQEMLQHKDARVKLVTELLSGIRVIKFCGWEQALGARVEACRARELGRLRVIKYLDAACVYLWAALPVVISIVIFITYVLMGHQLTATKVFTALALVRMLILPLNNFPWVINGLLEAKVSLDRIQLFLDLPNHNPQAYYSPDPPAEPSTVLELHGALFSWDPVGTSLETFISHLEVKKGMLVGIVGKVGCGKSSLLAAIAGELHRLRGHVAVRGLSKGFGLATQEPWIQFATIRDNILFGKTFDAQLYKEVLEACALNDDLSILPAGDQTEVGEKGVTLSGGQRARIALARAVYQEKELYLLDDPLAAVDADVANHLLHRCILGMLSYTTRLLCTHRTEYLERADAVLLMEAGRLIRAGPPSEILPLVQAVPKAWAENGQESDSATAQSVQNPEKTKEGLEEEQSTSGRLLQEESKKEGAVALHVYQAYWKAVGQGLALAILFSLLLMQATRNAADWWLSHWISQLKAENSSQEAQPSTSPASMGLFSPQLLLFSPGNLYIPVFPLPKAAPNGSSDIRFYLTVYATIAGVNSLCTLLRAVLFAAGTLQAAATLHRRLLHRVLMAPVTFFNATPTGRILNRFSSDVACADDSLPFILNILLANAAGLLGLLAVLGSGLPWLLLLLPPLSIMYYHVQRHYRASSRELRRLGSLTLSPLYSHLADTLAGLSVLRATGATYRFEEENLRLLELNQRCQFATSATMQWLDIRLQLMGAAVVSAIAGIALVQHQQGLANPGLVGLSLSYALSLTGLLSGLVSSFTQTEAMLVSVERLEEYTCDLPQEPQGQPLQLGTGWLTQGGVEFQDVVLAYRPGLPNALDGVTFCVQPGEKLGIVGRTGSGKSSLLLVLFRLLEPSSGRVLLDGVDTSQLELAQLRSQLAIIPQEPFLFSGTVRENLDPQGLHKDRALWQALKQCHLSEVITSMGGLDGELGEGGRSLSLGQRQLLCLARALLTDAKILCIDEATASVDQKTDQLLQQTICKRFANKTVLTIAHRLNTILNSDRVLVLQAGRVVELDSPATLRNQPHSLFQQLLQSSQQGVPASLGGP

[2] = target: T1, MRP7 (ABCC10); test: [3H]-paclitaxel accumulation in HEK/MRP7 cells; assay type: cell-based; conditions: 4 h treatment; 0.01 µM [3H]-paclitaxel (methods; Figure 5 legend prints 0.1 µM); 37°C; inhibitor of efflux

CC(=O)O[C@H]1C(=O)[C@@]2(C)[C@H]([C@H](OC(=O)c3ccccc3)[C@]3(O)C[C@H](OC(=O)[C@H](O)[C@@H](NC(=O)c4ccccc4)c4ccccc4)C(C)=C1C3(C)C)[C@]1(OC(C)=O)CO[C@@H]1C[C@@H]2O [[^3H]-paclitaxel]
cellular efflux time course, HEK/MRP7 versus HEK/pcDNA [1]: HEK/MRP7 cells, but not the parental HEK/pcDNA cells, rapidly effluxed [^3H]-paclitaxel

COc1cc2c(cc1OC)CN(CCc1ccc(NC(=O)c3cc(OC)c(OC)cc3NC(=O)c3cnc4ccccc4c3)cc1)CC2 [Tariquidar]
fold [3H]-paclitaxel accumulation at 0.3 μM [2]: 1.8 fold
